Results as given in patent publication US20160137639A1, “TRIAZOLE-ISOXAZOLE COMPOUND AND MEDICAL USE THEREOF” (JAPAN TOBACCO INC., priority 2012, published 2016).
Where two headings read alike, the source gives them in different places.

Assays:
[1] = biological target: T1, human RORγ (Homo sapiens, UniProt P51449); experiment: Luciferase reporter gene assay of inhibitory effect against RORγ transcriptional activity (GAL4-hRORγ plasmid in CHO cells); type: cell-based
T1 construct: human, NM_005060.3 and from Ser253 to Lys518; expressed in transfected cells; host or cells: CHO cells (transient co-transfection with pG5-Luc reporter)
T1 sequence (P51449 253-518): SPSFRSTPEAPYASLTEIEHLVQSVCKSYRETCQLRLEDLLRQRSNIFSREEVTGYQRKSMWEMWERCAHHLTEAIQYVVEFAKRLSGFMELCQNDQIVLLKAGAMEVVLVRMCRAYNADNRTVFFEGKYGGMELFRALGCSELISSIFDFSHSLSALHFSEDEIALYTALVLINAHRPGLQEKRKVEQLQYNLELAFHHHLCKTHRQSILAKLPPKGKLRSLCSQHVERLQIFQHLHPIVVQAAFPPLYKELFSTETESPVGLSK

[2] = biological target: T2, mouse RORγ (Mus musculus, UniProt P51450); experiment: Luciferase reporter gene assay of inhibitory effect against RORγ transcriptional activity (GAL4-mRORγ plasmid in CHO cells); type: cell-based
T2 construct: mouse, NM_011281.2 and from Ile251 to Lys516; expressed in transfected cells; host or cells: CHO cells (transient co-transfection with pG5-Luc reporter)
T2 sequence (P51450 251-516): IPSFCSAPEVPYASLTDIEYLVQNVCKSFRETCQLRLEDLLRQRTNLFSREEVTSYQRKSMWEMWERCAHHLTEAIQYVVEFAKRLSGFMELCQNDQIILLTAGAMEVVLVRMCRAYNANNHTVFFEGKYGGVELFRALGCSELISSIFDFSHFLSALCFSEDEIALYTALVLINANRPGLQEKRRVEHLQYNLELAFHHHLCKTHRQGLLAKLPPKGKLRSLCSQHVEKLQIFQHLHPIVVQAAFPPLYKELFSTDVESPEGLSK
In short: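 CHO cells transiently co-transfected with GAL4-mouse RORγ LBD (Ile251–Lys516) and GAL4-dependent luciferase reporter; eight compound concentrations, 0.1% DMSO, 2 days at 37 °C. Luminescence as %-of-vehicle control; EC50 by curve fit, cytotoxic concentrations excluded.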

Row | SMILES | EC50 ([1]; read-out: LUC EC50 (μM) hRORg) [µM] | EC50 ([2]; read-out: LUC EC50 (μM) mRORg) [µM] | EC50 ([1]; read-out: LUC EC50 hRORg) [µM] | EC50 ([2]; read-out: LUC EC50 mRORg) [µM]
1 | CCn1c(CCC2CCCCC2)nnc1[C@H]1CCCC[C@@H]1C(=O)Nc1cccc2ccccc12 (racemic) [Example F-35] | < 3 | < 3 | – | –
2 | Cc1ccc(NC(=O)[C@H]2CN(C)CC[C@@H]2c2nnc([C@H]3C[C@@H](CC(C)C)C3)n2C2CC2)c(C)c1 (racemic) [Example F-583] | – | – | < 3 | < 3
3 | CC(=O)N1C[C@H](C(=O)Nc2ccc(C)cc2C)[C@@H](c2nnc([C@H]3C[C@@H](c4ccccc4)C3)n2C2CC2)C1 (racemic) [Example F-346] | < 3 | < 3 | – | –
4 | Cc1ccc(NC(=O)C[C@H](CCC(=O)O)c2noc(-c3cc(C(C)(C)C)on3)c2C2CC2)c(Cl)c1 [Example E-43] | < 3 | < 3 | – | –
5 | CCn1c(CCC(=O)Nc2cccc(Cl)c2C)nnc1CCC1CCCC1 [Example F-54] | < 3 | < 3 | – | –
6 | COc1ccc(C)c(NC(=O)CCc2nnc(CCC(C)C)n2C2CC2)c1 [Example F-92] | > 3 | > 3 | – | –
7 | CC(=O)N1C[C@H](C(=O)Nc2ccc(C)cc2C)[C@@H](c2nnc(C3CN(S(=O)(=O)C(C)C)C3)n2C2CC2)C1 (racemic) [Example F-418] | > 3 | > 3 | – | –
8 | CCn1c(CCC(=O)NCc2ccccc2)nnc1C1Cc2ccccc2C1 [Example F-22] | > 3 | > 3 | – | –
9 | COC(=O)C(C)(C)CCc1nnc(CCC(=O)Nc2cccc(Cl)c2C)n1C1CC1 [Example F-210] | < 3 | < 3 | – | –
10 | Cc1ccc(NC(=O)C[C@H](CCC(=O)NS(C)(=O)=O)c2noc([C@H]3C[C@@H](CC(C)C)C3)c2C2CC2)c(C)c1 [Example F-636] | – | – | < 3 | < 3
11 | CC(=O)N1C[C@H](C(=O)Nc2cccc(C)c2C)[C@@H](c2nnc(CCCC(C)(C)C)n2C2CC2)C1 (racemic) [Example F-324] | < 3 | < 3 | – | –
12 | Cc1ccc(NC(=O)CCc2nnc(C3CC(COC(C)C)C3)n2C2CC2)c(C)c1 (single isomer, unassigned) [Example F-478] | > 3 | < 3 | – | –
13 | CC(=O)N1C[C@H](C(=O)Nc2ccc(C)cc2C)[C@@H](c2nnc(CCC(C)C)n2C2CC2)C1 (racemic) [Example F-162] | > 3 | < 3 | – | –
14 | CC(C)(C)C[C@H]1C[C@@H](c2noc([C@@H](CCC(=O)O)CC(=O)Nc3ccc(Cl)cc3F)c2C2CC2)C1 [Example F-717] | – | – | < 3 | < 3
15 | Cc1ccc(NC(=O)C[C@H](CC(C)C)c2noc(-c3cc(CC(C)C)on3)c2C2CC2)c(C)c1 [Example F-635] | – | – | < 3 | < 3
16 | Cc1c(Cl)cccc1NC(=O)CCc1nnc(CCN(C)C(C)(C)C)n1C1CC1 [Example F-294] | > 3 | > 3 | – | –
17 | Cc1cc(Cl)ccc1NC(=O)C[C@H](CC(C)C)c1nnc(-c2cc(CC(C)C)on2)n1C1CC1 [Example F-606] | – | – | < 3 | < 3
18 | CC(C)(C)C[C@H]1C[C@@H](c2onc([C@@H](CCC(=O)O)CC(=O)NC34CC(C3)C4)c2C2CC2)C1 [Example F-712] | – | – | > 3 | > 3
19 | Cc1ccc(NC(=O)C[C@H](CCO)c2nnc([C@H]3C[C@@H](CC(F)(F)F)C3)n2C2CC2)c(C)c1 [Example F-587] | – | – | < 3 | < 3
20 | COCC(=O)NC[C@@H](CC(=O)Nc1ccc(C)cc1C)c1nnc([C@H]2C[C@@H](CC(C)C)C2)n1C1CC1 [Example F-487] | < 3 | < 3 | – | –
21 | CCN(CC)C(=O)CN1C[C@H](C(=O)Nc2ccc(C)cc2C)[C@@H](c2nnc([C@H]3C[C@@H](CC(C)(C)C)C3)n2C2CC2)C1 [Example F-649] | – | – | < 3 | < 3
22 | Cc1ccc(NC(=O)C[C@H](CCO)c2nnc(-c3cc(CC(C)C)on3)n2C2CC2)c(C)c1 [Example F-457] | < 3 | > 3 | – | –
23 | Cc1ccc(NC(=O)C[C@@H](c2nnc([C@H]3C[C@@H](CC(C)C)C3)n2C2CC2)N(C)C)c(C)c1 [Example F-516] | – | – | < 3 | < 3
24 | COc1cc(C)ccc1CNC(=O)C[C@H](NC(C)=O)c1nnc(CCCC(C)C)n1C1CC1 [Example F-312] | > 3 | > 3 | – | –
25 | Cc1ccc(NC(=O)C[C@H](CCC(=O)O)c2noc(-c3cc(CC(C)C)no3)c2C2CC2)c(Cl)c1 [Example E-04, (S)-5-(2-chloro-4-methyl-phenylcarbamoyl)-4-(4-cyclopropyl-3′-isobutyl-[5,5′]biisoxazolyl-3-yl)-pentanoic acid] | < 3 | < 3 | – | –

Row | SMILES | EC50 ([1]; read-out: LUC EC50 (μM) hRORg) [µM] | EC50 ([2]; read-out: LUC EC50 (μM) mRORg) [µM] | EC50 ([1]; read-out: LUC EC50 hRORg) [µM] | EC50 ([2]; read-out: LUC EC50 mRORg) [µM]
26 | Cc1noc(NC(=O)C[C@H](CCC(=O)O)c2noc([C@H]3C[C@@H](CC(C)(C)C)C3)c2C2CC2)c1C [Example F-679] | – | – | < 3 | < 3
27 | CC(=O)N1C[C@H](C(=O)Nc2ccc(C)cc2C)[C@@H](c2nnc(CCC3CC3(C)C)n2C2CC2)C1 (single isomer, unassigned) [Example F-328] | < 3 | < 3 | – | –
28 | Cc1ccc(NC(=O)C[C@H](CCC(=O)O)c2noc3c2C(C)CCC3CCC(C)C)c(Cl)c1 (single isomer, unassigned) [Example F-690] | – | – | > 3 | < 3
29 | C=CCC(CC(=O)Nc1cccc(Cl)c1C)c1nnc(CCC2CCCCC2)n1C1CC1 (racemic) [Example F-244] | < 3 | < 3 | – | –
30 | Cc1ccc(C2CC2)cc1NC(=O)CCc1nnc(CCC(C)C)n1C1CC1 [Example F-152] | > 3 | > 3 | – | –
31 | Cc1ccc(NC(=O)CC(CN(C)C)c2nnc(CCCC(C)C)n2C2CC2)c(C)c1 (racemic) [Example F-278] | > 3 | < 3 | – | –
32 | CC(C)CCc1nnc(CCC(=O)NCCc2ccccc2)n1C1CC1 [Example F-58] | > 3 | > 3 | – | –
33 | Cc1c(Cl)cccc1NC(=O)CCc1nnc(C(O)CC(C)C)n1C1CC1 (racemic) [Example F-182] | > 3 | < 3 | – | –
34 | Cc1ccc(NC(=O)[C@H]2CN(C)CC[C@@H]2c2nnc(CCCC(C)(C)C)n2C2CC2)c(C)c1 (racemic) [Example F-394] | < 3 | < 3 | – | –
35 | Cn1c(CCC(=O)Nc2cccc3ccccc23)nnc1C1Cc2ccccc2C1 [Example F-8] | > 3 | < 3 | – | –
36 | CC(=O)N1C[C@H](C(=O)Nc2ccc(C)cc2C)[C@@H](c2nnc([C@H]3C[C@H](c4ccccc4)C3)n2C2CC2)C1 (racemic) [Example F-345] | < 3 | < 3 | – | –
37 | Cc1ccc(NC(=O)C[C@H](CCOCc2ccccc2)c2nnc([C@H]3C[C@@H](CC(C)C)C3)n2C2CC2)c(C)c1 [Example F-456] | < 3 | < 3 | – | –
38 | Cc1ccc(NC(=O)[C@H]2CCCN(C)[C@@H]2c2nnc(CCCC(C)(C)C)n2C2CC2)c(C)c1 [Example F-310] | < 3 | < 3 | – | –
39 | CCn1c(CCC(=O)Nc2cc(C)cc(C)c2)nnc1CCC(C)C [Example F-50] | > 3 | > 3 | – | –
40 | Cc1ccc(NC(=O)C[C@H](CCC(=O)O)c2noc(-c3cc(CC(C)C)nn3C)c2C2CC2)c(Cl)c1 [Example E-25] | > 3 | < 3 | – | –
41 | CC(C)(C)Cc1cc(-c2noc([C@@H](CCC(=O)O)CC(=O)Nc3ccc(Cl)cc3Cl)c2C2CC2)no1 [Example E-74] | < 3 | < 3 | – | –
42 | Cc1ccc(NC(=O)C[C@H](CCC(=O)O)c2noc3c2CCCC3CCC(C)C)c(Cl)c1 (single isomer, unassigned) [Example F-698] | – | – | < 3 | < 3
43 | CC(=O)N1C[C@@H](C(=O)Nc2ccc(C)cc2C)[C@H](c2nnc(CCCC(C)(C)C)n2C2CC2)C1 [Example F-339] | > 3 | > 3 | – | –
44 | Cc1ccc(NC(=O)[C@H]2CN(CC(=O)N(C)C)C[C@@H]2c2nnc([C@H]3C[C@@H](CC(C)(C)C)C3)n2C2CC2)c(C)c1 [Example F-652] | – | – | < 3 | < 3
45 | CCn1c(CCC(=O)NC2CCCCC2)nnc1C1Cc2ccccc2C1 [Example F-21] | > 3 | > 3 | – | –
46 | Cc1ccc(NC(=O)C[C@H](CCC(=O)O)c2noc(-c3cc(C4(C)CCCC4)on3)c2C2CC2)c(Cl)c1 [Example E-42] | < 3 | < 3 | – | –
47 | Cc1ccc(NC(=O)CCc2noc([C@H]3C[C@@H](CC(C)C)C3)c2/C=C/C(=O)O)c(C)c1 [Example F-646] | – | – | > 3 | > 3
48 | Cc1ccc(NC(=O)[C@H]2CC(C)(O)C[C@@H]2c2nnc([C@H]3C[C@@H](CC(C)C)C3)n2C2CC2)c(C)c1 (single isomer, unassigned) [Example F-565] | – | – | < 3 | < 3
49 | CC(=O)N1C[C@H](C(=O)Nc2ccc(C)cc2C)[C@@H](c2nnc(CCCC(C)C)n2C2CC2)C1 (racemic) [Example F-220] | < 3 | < 3 | – | –
